Experimental data as given in PMC8320612 (Current Research in Toxicology, 2021).
pIC50: −log10 of the molar value.

Assays:
[1] = target: T1, thyroid peroxidase (TPO), rat thyroid microsomes (Rattus norvegicus, UniProt P14650); experiment: TPO activity assay, MIT to DIT monoiodination, LC-MS/MS; format: biochemical; conditions: result in words
T1 sequence (P14650 32-914): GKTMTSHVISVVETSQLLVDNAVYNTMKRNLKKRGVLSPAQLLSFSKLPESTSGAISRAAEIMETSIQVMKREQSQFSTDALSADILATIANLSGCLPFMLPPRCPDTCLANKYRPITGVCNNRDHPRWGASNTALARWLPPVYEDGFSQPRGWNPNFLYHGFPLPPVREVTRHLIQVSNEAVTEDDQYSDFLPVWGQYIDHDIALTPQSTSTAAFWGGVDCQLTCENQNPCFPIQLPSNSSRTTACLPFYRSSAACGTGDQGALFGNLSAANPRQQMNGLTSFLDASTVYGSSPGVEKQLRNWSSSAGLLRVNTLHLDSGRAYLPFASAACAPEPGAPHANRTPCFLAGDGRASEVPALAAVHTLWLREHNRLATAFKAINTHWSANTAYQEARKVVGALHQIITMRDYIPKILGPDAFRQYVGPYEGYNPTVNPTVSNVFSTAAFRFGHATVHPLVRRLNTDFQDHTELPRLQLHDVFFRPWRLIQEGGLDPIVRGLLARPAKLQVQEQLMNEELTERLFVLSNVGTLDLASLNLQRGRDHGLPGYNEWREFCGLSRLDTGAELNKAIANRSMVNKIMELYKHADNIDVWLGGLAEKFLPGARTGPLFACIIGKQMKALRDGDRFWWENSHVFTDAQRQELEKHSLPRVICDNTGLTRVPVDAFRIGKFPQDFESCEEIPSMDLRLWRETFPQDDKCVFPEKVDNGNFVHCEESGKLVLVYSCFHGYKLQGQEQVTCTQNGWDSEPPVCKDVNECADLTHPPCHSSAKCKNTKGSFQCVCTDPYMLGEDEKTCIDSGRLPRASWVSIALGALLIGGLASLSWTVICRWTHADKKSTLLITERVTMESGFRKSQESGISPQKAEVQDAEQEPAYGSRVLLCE

[2] = target: T1, thyroid peroxidase (TPO), rat thyroid microsomes; experiment: Battery of TPO assays, summary of IC50 across reactions; format: biochemical

pIC50 [2]: 4.24 to 4.70
Structure (SMILES): O=c1c(-c2ccc(O)cc2)coc2cc(O)ccc12 [DZN, Daidzein]
Effect on MIT to DIT iodination [1]: no adverse effects
